The subject of assay [1] is Plasmodium spp. complex II. The settings on record: cited from earlier work; for Effect on Plasmodium mitochondrial complex II: classical ubiquinone-site inhibitors, ref [30], [14].
The subject of assay [2] is Plasmodium spp. complex II. In words: Plasmodium spp. complex II inhibition (literature values). The format is biochemical. The settings on record: ratio between mammalian and Plasmodium complex II IC50s. From the text: Table 1 Selectivity of classical complex II inhibitor against Plasmodium spp. and mammal complex II. | column: Selectivity ^a
For a further assay, the system named is Mammal complex II. The settings on record: read-out: Complex II IC50, Mammal, cited from earlier work.
The next assay has as its system P. falciparum 3D7-yDHODH. In words: Growth inhibition of yeast DHODH-expressing strain. The format is cell-based. The settings on record: Plasmodium falciparum, 3D7, read-out: Growth inhibition EC50, 3D7-yDHODH. As to the method:
P. falciparum 3D7-yDHODH was prepared and maintained as described previously. P. falciparum Dd2, and Dd2-derived mutant strains were kindly provided by David A. Fidock, and maintained at Nagasaki University essentially as described in reference, except without supplementation with WR99210.
(§1) Synchronized ring-form parasites (0.3% parasitemia) were prepared in complete medium containing different concentration of various compounds (at a fixed final DMSO concentration of 0.1% (v/v)) and distributed to 96-well plates at 100 μL/well. After 72 h of incubation, parasite growth was monitored by the previously described lactate dehydrogenase (PfLDH)-based assay method; plates were read using a SpectraMax® Paradigm spectrophotometer (Molecular Devices, Inc.; San Jose, CA, USA). EC50 values were calculated using Prism® ver.6.01 (GraphPad; San Diego, CA, USA). Values are presented as the means of three independent experiments.

In the next assay the test system is P. falciparum 3D7. In words: Drug sensitivity assay, 72 h, PfLDH-based. The settings on record: Plasmodium falciparum, 3D7; Figure 6b; read-out: Growth inhibition EC50, 3D7. The format is cell-based. The procedure:
The P. falciparum 3D7 strain was cultured, as described previously, in 3% hematocrit type A human red blood cells (RBCs) in RPMI1640 medium (Invitrogen; San Diego, CA, USA) supplemented with 25 mM sodium hydrogen biocarbonate, 10 μg/mL hypoxanthine, 40 μg/mL gentamicin sulfate, and 0.5% (w/v) Albumax II (Invitrogen) (“complete medium”). Cultures were maintained in a MG-70M multi-gas incubator (Taitec) under the conditions of 5% O2, 5% CO2, and 90% N2 at 37 °C. The medium was replaced daily. Parasitemia was measured by thin blood smears stained with Giemsa. In our previous study, we generated mutant P. falciparum strains expressing either disrupted or full-length versions of the flavoprotein (Fp) subunit (encoded by the Pfsdha gene). Both strains were cultured in complete medium at 3% hematocrit supplemented with 5 nM WR99210 (Jacobus Pharmaceuticals; Plainsboro, NJ, USA). The experiments using human RBCs were performed under the guidelines of Research Ethics Committee of the Faculty of Medicine of the University of Tokyo and Institutional Review Board (IRB) of Nagasaki University (Permission nos. 10050 and no. 19, respectively). Human RBCs were obtained from The Japanese Red Cross Society. The synchronization of parasite cultures was performed by treating with 5% (w/v) sorbitol for 10 min [77].
as §1

Read-outs that look alike come from different tables or passages of the source. Where only a bound is given, the exact number is not on record here.

The term IC50 denotes the point on the concentration scale where inhibition reaches its midpoint. On to `O=C(CC(=O)C(F)(F)F)c1cccs1` [TTFA, 2-thenoyltrifluoroacetone], for which the “Effect on Plasmodium mitochondrial complex II” value (from here on “Effect”) in assay [1] is recorded as “ineffective”. Besides, the IC50 was > 50 µM in assay [1] (ref Suraveratum et al. [30]) and 5.4 µM in the assay with Mammal complex II (ref Miyadera et al. [29]). Also, the Selectivity in assay [2] is <0.11.
On to `CC1=C(C(=O)Nc2ccccc2)SCCO1` [Carboxin], for which the “Effect” value in assay [1] is listed as “ineffective”. Also, the 50% inhibitory concentration (IC50) was 3.6 ± 1 µM in assay [1] (ref Kawahara et al. [14]) and 1 µM with Mammal complex II (ref Miyadera et al. [29]). Besides, in assay [2], the Selectivity was 0.28.
In the case of `O=C(O)CC(=O)O` [Malonate], the half-inhibitory concentration (IC50) in assay [1] (ref Suraveratum et al. [30]) was 13.2 ± 0.49 µM; in the assay on Mammal complex II (ref Mogi et al. [34]) it was 3.4 µM. For the same molecule, the Selectivity in assay [2] worked out at 0.26.
For the molecule `COc1[nH]c(=O)c(C(=O)[C@@H](C)C[C@H](C)[C@@H](Cl)CCl)c(O)c1OC` [Atpenin A5], in assay [1], the “Effect” value is reported as “ineffective”. In addition, the results for the IC50 (in assay [1] (ref Kawahara et al. [14]); with Mammal complex II (ref Miyadera et al. [29])) were 4.6 ± 0.2 µM and 0.004 µM, respectively. Moreover, in assay [2], the Selectivity was 0.00087.
As a reminder, the EC50 is the concentration that produces a half-maximal response. `O=C1C(O)=C([C@H]2CC[C@H](c3ccc(Cl)cc3)CC2)C(=O)c2ccccc21` [Atovaquone]: the EC50 with P. falciparum 3D7-yDHODH is > 0.1 µM; in the assay with P. falciparum 3D7, 0.00056 µM.

The record behind these values is paper PMC9319939, “Siccanin Is a Dual-Target Inhibitor of Plasmodium falciparum Mitochondrial Complex II and Complex III” (Pharmaceuticals, 2022).
